The results in this text go back to patent US6433023B1, “Compositions having anti-leishmanial activity” (The United States of America as represented by the …, priority 1997, dated 2002).

The test relates to Leishmania promastigotes. The test can be described thus: Testing of agents against Leishmania species in parasite culture medium (anti-leishmanial activity). As to conditions: for IC50: read-out: concentrations effective at the IC50 level; for effectiveness compared with trifluralin: comparison with trifluralin. The test is classed as cell-based. An excerpt: […]-3,5-dinitrobenzotrifluoride (compound 1), 4-chloro-3-nitrobenzotrifluoride (compound 4), 3-amino-4-chlorobenzotrifluoride (compound 5), 2-bromo-3,5(bis(trifluoromethyl)aniline (compound 6), 4-methoxy-3-nitrobenzotrifluoride (compound 7), and 2-nitro-4-(trifluoromethyl)thiophenol (compound 8) were obtained from Aldrich Chemical Company and were used to without further purification. Trifluralin was obtained from Reidel de Haen and was used without further purification. 4-chloro-3-nitro-5-sulfonylbenzotrifluoride (compound 2) and 4-chloro-3-nitro-5-carboxybenzotrifluoride (compound 3) were obtained from the Walter Reed Army Institute of Research inventory and were used without further purification. All of the agents were initially dissolved in dimethyl sulfoxide and were then diluted at 100 fold in parasitic culture medium before being tested against Leishmania species. […]

[1] abbreviates: against Leishmania species, agents dissolved in dimethyl sulfoxide, diluted 100 fold in parasitic culture medium.

Where two headings read alike, the source gives them in different places.

For `O=[N+]([O-])c1cc(C(F)(F)F)cc([N+](=O)[O-])c1Cl` [compound 1, 4-chloro-3,5 dinitrobenzotrifluoride], the IC50 (Leishmania) was 0.89 µM. In addition, for the setting “against Leishmania species”, the “effectiveness compared with trifluralin” value is recorded as “much more effective than trifluralin”.

As to `O=[N+]([O-])C1=CC(C(F)(F)F)=CC(=S(=O)=O)C1Cl` (stereo not drawn) [compound 2, 4-chloro-3-nitro-5-sulfonylbenzotrifluoride], under setting [1], the IC50 was determined as 6.1 µM. Further, for the setting “against Leishmania species”, the “effectiveness compared with trifluralin” value is “much more effective than trifluralin”.

Consider `O=C(O)c1cc(C(F)(F)F)cc([N+](=O)[O-])c1Cl` [compound 3, 4-chloro-3-nitro-5-carboxybenzotrifluoride], for which, under setting [1], the IC50 was found to be 120 µM.

As for `O=[N+]([O-])c1cc(C(F)(F)F)ccc1Cl` [compound 4, 4-chloro-3-nitrobenzotrifluoride], the IC50 under setting [1] came to 35 µM. In addition, the “effectiveness compared with trifluralin” value (against Leishmania species) is given as “much more effective than trifluralin”.

`Nc1cc(C(F)(F)F)ccc1Cl` [compound 5, 3-amino-4-chlorobenzotrifluoride]: the IC50 under setting [1] stood at 77 µM.

Consider `Nc1cc(C(F)(F)F)cc(C(F)(F)F)c1Br` [compound 6, 2-bromo-3,5-bis(trifluoromethyl)aniline], for which, under setting [1], the IC50 was 26 µM.

As for `COc1ccc(C(F)(F)F)cc1[N+](=O)[O-]` [compound 7, 4-methoxy-3-nitrobenzotrifluoride], the IC50 under setting [1] came out at 68 µM.

Take `O=[N+]([O-])c1cc(C(F)(F)F)ccc1S` [compound 8, 2-nitro-4-(trifluoromethyl)thiophenol]: the IC50 under setting [1] came out at 15 µM. The “effectiveness compared with trifluralin” value (against Leishmania species) is given as “much more effective than trifluralin”.
